Tests used:
Epidermophyton floccosum = assay: Minimum inhibitory concentration, poison media procedure; format: cell-based
Method: (§1) Each individual essential oil component was mixed with molten modified Sabouraud agar in 100 ppm, 500 ppm, or 1000 ppm (v/v). The poison media agar was then poured and allowed to cool for at least 48 hours. Separate cultures of four dermatophytes (i.e.: E. floccosum, M. gypseum, T. mentagrophytes, and T. rubrum) were grown on modified Sabouraud agar for four days until a confluent mat of mycelium developed. The four cultures were then cut into 8 mm plugs and placed upside down with the fungi culture on the surface of the poison media. This procedure was run in triplicate. In addition, several mixtures containing various combinations of the essential oil components were tested using the same procedure. The plates were incubated for one week at 30° C. Plates were then examined for growth. Plates with no visible growth after one week on the poison media were listed as fungistatic
(§2) Plugs showing no growth on the poison media were then transferred to modified SDA, allowed to incubate for an additional week at 30° C., and then reexamined for growth. All components were run in triplicate. Plates with no growth after the additional week were listed as fungicidal.

Microsporum gypseum = assay: as above; format: cell-based
Method: as §1, §2

[1] = tested on: Trichophyton mentagrophytes; assay: as above; format: cell-based
Method: as §1, §2

Trichopyton rubrum = assay: as above; format: cell-based, Trichophyton rubrum
Method: as §1, §2

[2] = tested on: four dermatophytes (E. floccosum, M. gypseum, T. mentagrophytes, and T. rubrum); assay: Poison media procedure; format: cell-based; conditions: 100 ppm
Method: as §1, §2

[3] = tested on: dermatophytic fungal strains; assay: Disk assay of essential oil components; format: cell-based; conditions: disk loaded with 500, 1000, 1500 or 3000 ppm
Method: Various embodiments of the penetrating carrier system of the present invention were tested for their antimicrobial/biostatic potential by a laboratory test method, which provides a qualitative and semi-qualitative procedure for the evaluation of antimicrobial activity by disk assay. All dermatophytic fungal strains (Table 1) were grown on modified Sabouraud agar (pH adjusted to 7). The cultures were grown for one week previous to the experiments at 30° C., while stock culture plates were maintained at 4° C. until needed. […] The sterile disk was then loaded with 500 ppm, 1000 ppm, 1500 ppm or 3000 ppm of the test compound. A control was provided by placing 2 ul of alcohol on plates that were inoculated for this purpose. The plates were incubated for seven (7) days at 30° C. The zone of inhibition was measured around each loaded disk in four directions. The average measurement was then determined and recorded in millimeters as the zone of inhibition.

[4] = 100 ppm (v/v) in modified Sabouraud agar, one week at 30° C.
[5] = 500 ppm (v/v) in modified Sabouraud agar, one week at 30° C.
[6] = 1000 ppm (v/v) in modified Sabouraud agar, one week at 30° C.

| Structure (SMILES) | Growth on poison media (fungistatic / fungicidal / growth) (Epidermophyton floccosum; [4]) | Growth on poison media (fungistatic / fungicidal / growth) (Epidermophyton floccosum; [5]) | Growth on poison media (fungistatic / fungicidal / growth) (Epidermophyton floccosum; [6]) | Growth on poison media (fungistatic / fungicidal / growth) (Microsporum gypseum; [4]) | Growth on poison media (fungistatic / fungicidal / growth) (Microsporum gypseum; [5]) | Growth on poison media (fungistatic / fungicidal / growth) (Microsporum gypseum; [6]) | Growth on poison media (fungistatic / fungicidal / growth) [1, 4] | Growth on poison media (fungistatic / fungicidal / growth) [1, 5] | Growth on poison media (fungistatic / fungicidal / growth) [1, 6] | Growth on poison media (fungistatic / fungicidal / growth) (Trichopyton rubrum; [4]) | Growth on poison media (fungistatic / fungicidal / growth) (Trichopyton rubrum; [5]) | Growth on poison media (fungistatic / fungicidal / growth) (Trichopyton rubrum; [6]) | Inhibition of growth [2] | Rank among essential oil components in the disk assay [3] | further results |
| --- | --- | --- | --- | --- | --- | --- | --- | --- | --- | --- | --- | --- | --- | --- | --- |
| Cc1ccc(C(C)C)cc1O [Carvacrol] | [empty] | fungicidal | fungicidal | fungistatic | fungicidal | fungicidal | [empty] | fungicidal | fungicidal | fungistatic | fungicidal | fungicidal | inhibit the growth of several organisms | most inhibitory | – |
| O=CC=Cc1ccccc1 [Cinnamaldehyde] | [empty] | fungicidal | fungicidal | [empty] | fungicidal | fungicidal | [empty] | [empty] | fungicidal | [empty] | fungicidal | fungicidal | – | most inhibitory | – |
| CC(C)=CCCC(C)=CC=O [Citral] | [empty] | [empty] | [empty] | [empty] | [empty] | fungicidal | [empty] | [empty] | fungistatic | [empty] | [empty] | fungicidal | – | most inhibitory | – |
| C=CCc1ccc(O)c(OC)c1 [Eugenol] | [empty] | fungicidal | fungicidal | [empty] | fungicidal | fungicidal | [empty] | fungistatic | fungistatic | [empty] | fungistatic | fungicidal | – | most inhibitory | – |
| C=CCc1ccc(OC)c(OC)c1 [Methyl Eugenol] | – | – | – | – | – | – | – | – | – | – | – | – | – | – | Growth on poison media (fungistatic / fungicidal / growth) (Epidermophyton floccosum; 168 h, 100 ppm): [empty]; Growth on poison media (fungistatic / fungicidal / growth) (Epidermophyton floccosum; 168 h, 500 ppm): fungistatic; Growth on poison media (fungistatic / fungicidal / growth) (Epidermophyton floccosum; 168 h, 1000 ppm): fungistatic; Growth on poison media (fungistatic / fungicidal / growth) (Microsporum gypseum; 168 h, 100 ppm): [empty]; Growth on poison media (fungistatic / fungicidal / growth) (Microsporum gypseum; 168 h, 500 ppm): fungistatic; Growth on poison media (fungistatic / fungicidal / growth) (Microsporum gypseum; 168 h, 1000 ppm): fungistatic; Growth on poison media (fungistatic / fungicidal / growth) ([1]; 168 h, 100 ppm): [empty]; Growth on poison media (fungistatic / fungicidal / growth) ([1]; 168 h, 500 ppm): fungistatic; Growth on poison media (fungistatic / fungicidal / growth) ([1]; 168 h, 1000 ppm): fungistatic; Growth on poison media (fungistatic / fungicidal / growth) (Trichopyton rubrum; 168 h, 100 ppm): [empty]; Growth on poison media (fungistatic / fungicidal / growth) (Trichopyton rubrum; 168 h, 500 ppm): fungistatic; Growth on poison media (fungistatic / fungicidal / growth) (Trichopyton rubrum; 168 h, 1000 ppm): fungistatic |
| Cc1ccc(C(C)C)c(O)c1 [Thymol] | fungistatic | fungicidal | fungicidal | fungistatic | fungicidal | fungicidal | fungistatic | fungicidal | fungicidal | fungicidal | fungicidal | fungicidal | inhibit the growth of several organisms | most inhibitory | – |

Reference: patent US20090258098A1, “PENETRATING CARRIER, ANTIFUNGAL COMPOSITION USING THE SAME AND METHOD FOR TREATMENT OF DERMATOPHYTE INFECTIONS” (priority 2008, published 2009)
